Here are results for 4 compounds from patent publication US20050049294A1, “Methods of using [3.2.0] heterocyclic compounds and analogs thereof” (priority 2003, published 2005).

Assay [1] relates to LeTx-induced cytotoxicity of RAW264.7 cells. The conditions noted are these: read-out: EC50 concentrations in the LeTx assay; cited from earlier work.
Another assay concerns Jurkat cells. The assay can be described thus: Cytotoxicity against Jurkat cells. In kind it is cell-based, human. To be noted: Table 5, Jurkat Cells.
In another assay the test system is HL-60 cells. Description: Cell growth inhibition (resazurin, 48 hours), HL-60. The source says: (§1) The DNA binding agent Mitoxantrone was included as a control, as HL-60/MX2 cells are reported to be resistant to this chemotherapeutic agent (Harker W. G. et al. 1989).
The next assay deals with HL-60/MX2 cells. The assay can be described thus: cells.
Source text: as §1

The target in assay [2] is T1, chymotrypsin-like activity of rabbit muscle 20S proteasomes (Oryctolagus cuniculus, UniProt G1T4Q9).
T1 sequence (G1T4Q9 1-263): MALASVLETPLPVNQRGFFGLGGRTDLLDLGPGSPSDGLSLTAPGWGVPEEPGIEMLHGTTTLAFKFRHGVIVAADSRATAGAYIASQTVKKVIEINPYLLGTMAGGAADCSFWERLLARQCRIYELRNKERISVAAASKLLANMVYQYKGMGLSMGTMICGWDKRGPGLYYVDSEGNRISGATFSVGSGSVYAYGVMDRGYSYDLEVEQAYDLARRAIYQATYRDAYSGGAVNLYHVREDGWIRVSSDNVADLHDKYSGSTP
Description: Inhibition of chymotrypsin-like activity of purified rabbit muscle 20S proteasome (suc-LLVY-AMC). In kind it is biochemical. To be noted: Example 21. The procedure: This peptide substrate is specific for the chymotrypsin-like enzyme activity of the proteasome.
Omuralide was prepared as a 10 mM stock in DMSO and stored in 5 μL aliquots at −80° C. […] The assay measures the hydrolysis of Suc-LLVY-AMC into Suc-LLVY and AMC. The released coumarin (AMC) was measured fluorometrically by using λex=390 nm and λem=460 nm. The assays were performed in a microtiter plate (Corning 3904), and followed kinetically with measurements every five minutes. The instrument used was a Thermo Lab Systems Fluoroskan, with the incubation chamber set to 37° C. The assays were performed according to the manufacturer's protocol, with the following changes. The proteasome was activated as described with SDS, and held on ice prior to the assay. […] Ten microliters of each dose were added in triplicate to the assay plate, and 190 μL of the activated proteasome was added and mixed. The samples were pre-incubated in the Fluoroskan for 5 minutes at 37° C. Substrate was added and the kinetics of AMC were followed for one hour.

Assay [3] relates to LeTx-induced cytotoxicity of RAW264.7 cells. The conditions noted are these: 1 μM.

pEC50: −log10 of the molar value. Like-named read-outs stand apart in the source and are kept apart here. Peptide text beside a SMILES is read from it. * marks the point of attachment. Cbz = O=C(OCc1ccccc1)*

`CC(=O)N[C@@H](CSC(=O)[C@]1([C@@H](O)C(C)C)NC(=O)[C@H](C)[C@@H]1O)C(=O)O` [Lactacystin]: the pEC50 in assay [1] is 5.52.
Regarding `CC(C)C[C@@H](C=O)NC(=O)[C@H](CC(C)C)NC(=O)[C@H](CC(C)C)NC(=O)OCc1ccccc1` [MG132] (Cbz-Leu-Leu-Leu-aldehyde), the pEC50 in assay [1] is 5.52.
On to `O=C1c2c(O)ccc(O)c2C(=O)c2c(NCCNCCO)ccc(NCCNCCO)c21` [Mitoxantrone, reference compound], for which the pEC50 in the assay on Jurkat cells (Homo sapiens, read-out: EC50) is 7.30. Further, in the assay with Jurkat cells, the “% max cell kill” value is 99%. Further, the EC50 with HL-60 cells (Homo sapiens, HL-60, read-out: EC50 (nM) HL-60, Table 17) was found to be 42 nM; in the assay on HL-60 cells (read-out: EC50 (nM) HL-60, Table 17), 40 nM; in the assay on HL-60/MX2 cells (Homo sapiens, HL60/MX2, read-out: EC50 (nM) HL-60/MX2, Table 17), 1340 nM. In addition, the Fold change with HL-60/MX2 cells (Table 17, ratio of EC50 values (HL-60/MX2:HL-60)) is on record as 30.6 fold.
On to `CC(C)[C@H](O)[C@@]12NC(=O)[C@H](C)[C@@H]1OC2=O` [Omuralide, reference compound], for which the pEC50 in assay [2] (Calbiochem 20S Proteasome Kit, read-out: average EC50 in the two assays, chymotrypsin-like activity) was 7.28; in assay [2] (first experiment, read-out: EC50, average value in the 20S proteasome assay (FIG. 27)) it was 7.31. Moreover, the “viability, compound + LeTx” value in assay [3] turned out to be 37%.
